{"source": "patent US10106539B2", "about": "“Spiro-indolines for the treatment and prophylaxis of respiratory syncytial virus infection (RSV)” (REVIRAL LIMITED, priority 2014, dated 2018)", "key": {"[1]": {"assay": "Liver microsomal stability, human", "format": "in vitro ADME", "settings": "both sexes, pooled liver microsomes, pH 7.4, 3 μM compound, read-out: Liver Microsomal Stability T1/2, human", "method": "(§1) Microsomal Incubation: Experimental Procedure\n(§2) Pooled human liver microsomes (pooled male and female), pooled rat liver microsomes (male Sprague Dawley rats) and pooled dog liver microsomes (male Beagle dog) are purchased from a reputable commercial supplier and stored at −80° C. prior to use.\n(§3) Microsomes (final protein concentration 0.5 mg/mL), 0.1 M phosphate buffer pH 7.4 and test compound (final substrate concentration 3 μM; final DMSO concentration 0.25%) are pre-incubated at 37° C. prior to the addition of NADPH (final concentration 1 mM) to initiate the reaction. The final incubation volume is 50 μL. A control incubation is included for each compound tested where 0.1 M phosphate buffer pH 7.4 is added instead of NADPH (minus NADPH). Two control compounds are included with each species. All incubations are performed singularly for each test compound.\n(§4) Compounds are incubated for 0, 5, 15, 30 and 45 min. The control (minus NADPH) is incubated for 45 min only. The reactions are stopped by transferring 25 μL of incubate to 50 μL methanol at the appropriate time points. The termination plates are centrifuged at 2,500 rpm for 20 min at 4° C. to precipitate the protein. Following protein precipitation, the sample supernatants are combined in cassettes of up to 4 compounds, internal standard is added and samples analysed by LC-MS/MS. From a plot of ln peak area ratio (compound peak area/internal standard peak area) against time, the gradient of the line is determined. Subsequently, half-life and intrinsic clearance are calculated"}, "[2]": {"assay": "Liver microsomal stability, dog", "format": "in vitro ADME", "settings": "male, Beagle, pooled liver microsomes, pH 7.4, 3 μM compound, read-out: Liver Microsomal Stability T1/2, dog", "method": "as §1, §2, §3, §4"}, "RSV A2 (PRNT1)": {"test_system": "RSV A2 (PRNT1)", "assay": "RSV plaque reduction assay, A2 (PRNT1), Vero cells", "format": "cell-based, respiratory syncytial virus", "settings": "n = 4", "method": "Plaque Reduction Assay: […] After an overnight incubation at 37° C. in a humidified 5% CO2 atmosphere, the monolayer of cells should be approximately 90% confluent. Antiviral compounds were titrated in pre-warmed Serum Free (SF) Optimem in a U-bottom 96 well plate. […] Media was then removed from cells and replaced with PBS (100 μl/well). RSV stock was thawed and diluted in SF Optimem media to 4000 PFU/mLl. An equal volume of virus was added to compounds on the titration plate. PBS was removed from cells which were then inoculated with the virus/compound solution (50 μL/well). Cells were incubated for 2 h in a 37° C.+5% CO2 humidified incubator to allow infection. […] Immunostaining Procedure: Media was removed from cells and the monolayer washed with PBS. Cells were fixed with ice cold 80% Acetone in PBS (100 μl/well) for 20 mins at −20° C. […] Blocking solution was removed and plates washed once with PBS-T. Primary antibody in blocking solution was added to plates (50 μl/well) and incubated for 1 h at 37° C. Plates were then washed 3 times with PBS-T. Secondary antibody in blocking solution was added to plates (50 μL/well) and incubated for 1 h at 37° C. in the dark. […] Plates were scanned on the Odyssey Imager (Li-Cor Biosciences) at a resolution of […], medium quality and level 5 intensity in the […]. Data Analysis: Images obtained were saved and plaque numbers counted with the aid of computer imaging software. EC50 values for compounds were derived from dose response curves [three variable log (inhibitor) vs response] obtained using Graphpad Prism software."}, "[3]": {"assay": "Liver microsomal stability, rat", "format": "in vitro ADME", "settings": "male, Sprague Dawley, read-out: Liver Microsomal Stability T1/2, rat", "method": "as §1, §2\nThe final incubation volume is 50 μL. A control incubation is included for each compound tested where 0.1 M phosphate buffer pH 7.4 is added instead of NADPH (minus NADPH). Two control compounds are included with each species. All incubations are performed singularly for each test compound.\nas §4, with “The” for “Compounds are incubated for 0, 5, 15, 30 and 45 min. The control (minus NADPH) is incubated for 45 min only. The”"}, "[4]": {"assay": "In vivo pharmacokinetics in rats (IV and PO)", "set-up": "species or system male Sprague Dawley rats", "settings": "male Sprague Dawley rats, 1 mg/kg (IV)", "method": "The pharmacokinetics of compounds were studied in vivo in male Sprague Dawley rats at doses of 1 mg/kg (IV) and 10 mg/kg (PO).\nSprague Dawley rats were treated with experimental compounds via intravenous and oral administration. Three animals for each route of administration were used with serial blood sampling at ten time points post dosing of compound.\nAnimals were weighed and used if between 200-250 g. Serial blood samples were collected at 0.02, 0.08, 0.25, 0.50, 1, 2, 4, 6, 8 and 24 hours post dosing. […] Blood samples were delivered into an anticoagulant (sodium heparin) and centrifuged at 4° C. Plasma samples were subsequently stored frozen at less than −20° C. prior to analysis.\nFollowing protein precipitation with acetonitrile, samples were analysed with tandem liquid chromatography/mass spectrometry using electrospray ionisation. A full matrix curve with internal standards was employed and PK parameters were calculated.\nIn a similar manner, oral administration was performed by gavage at doses of 5 or 10 mg/kg at a concentration of 5 mg/ml in 1% Methyl cellulose (Sigma M7140), 0.1% Tween 80 in water. Serial samples were taken as described above.\nRV039 was administered at doses of 1 mg/kg (IV) and 5 mg/kg (PO)."}, "[5]": {"settings": "human respiratory syncytial virus, Vero"}}, "data": [{"smiles": "CC(C)CCn1c(CN2C(=O)C3(CC3)c3ccncc32)nc2cc(CN)ccc21", "note": "[Example 6, 1′-((5-(aminomethyl)-1-isopentyl-1H-benzo[d]imidazol-2-yl)methyl)spiro[cyclopropane-1,3′-pyrrolo[2,3-c]pyridin]-2′(1′H)-one]", "values": [{"measurement": "half-life at 3 μM", "setting": "[1]", "result": 229, "unit": "min"}, {"measurement": "half-life at 3 μM", "setting": "[2]", "result": 1100, "unit": "min"}, {"measurement": "IC50", "setting": "RSV A2 (PRNT1); [5]", "result": 2.3, "unit": "nM"}, {"measurement": "half-life at 3 μM", "setting": "[3]; pooled liver microsomes, pH 7.4, 3 μM compound", "result": 125, "unit": "min"}]}, {"smiles": "NCc1ccc2c(c1)nc(CN1C(=O)C3(CC3)c3ccc(F)cc31)n2C1CCC(O)CC1", "note": "[Example 8, 1′-((5-(Aminomethyl)-1-((1R,4R)-4-hydroxycyclohexyl)-1H-benzo[d]imidazol-2-yl)methyl)-6′-fluorospiro[cyclopropane-1,3′-indolin]-2′-one]", "values": [{"measurement": "IC50", "setting": "RSV A2 (PRNT1)", "result": 4.8, "unit": "nM"}]}, {"smiles": "NCc1ccc2c(c1)nc(CN1C(=O)C3(CC3)c3ccc(F)cc31)n2C1CCOCC1", "note": "[Example 7, 1′-((5-(aminomethyl)-1-(tetrahydro-2H-pyran-4-yl)-1H-benzo[d]imidazol-2-yl)methyl)-6′-fluorospiro[cyclopropane-1,3′-indolin]-2′-one]", "values": [{"measurement": "half-life at 3 μM", "setting": "[1]", "result": 33.4, "unit": "min"}, {"measurement": "half-life at 3 μM", "setting": "[2]", "result": 3350, "unit": "min"}, {"measurement": "IC50", "setting": "RSV A2 (PRNT1); [5]", "result": 1.6, "unit": "nM"}, {"measurement": "half-life at 3 μM", "setting": "[3]; pH 7.4, rat liver microsomes, 3 μM compound", "result": 246, "unit": "min"}]}, {"smiles": "CC(C)CCn1c(CN2C(=O)C3(CC3)c3cccnc32)nc2cc(CN)ccc21", "note": "[Example 5, 1′-((5-(aminomethyl)-1-isopentyl-1H-benzo[d]imidazol-2-yl)methyl)[spirocyclopropane-1,3′-pyrrolo[2,3-b]pyridin]-2′(1′H)-one]", "values": [{"measurement": "IC50", "setting": "RSV A2 (PRNT1)", "result": 5.3, "unit": "nM"}, {"measurement": "Volume of distribution", "setting": "[4]", "result": "Example 5: 8.2 L/kg"}]}]}
